In PMC4737078, “Cytochrome P450 CYP71BE5 in grapevine (Vitis vinifera) catalyzes the formation of the spicy aroma compound (−)-rotundone” (Journal of Experimental Botany, 2015):

Assays:
VvSTO4 = target: T1, VvSTO4 (Vitis vinifera, UniProt A0A0S3QPU4); test: GC-MS of reaction products, recombinant yeast microsomes; type: biochemical; conditions: 100 μM substrate, 1 mM NADPH, 50 mM Tris-HCl pH 7.5, 30 °C, 2 h; unidentified products presumed mono-hydroxylated sesquiterpenes
T1 construct: gene CYP71BE1
T1 sequence (A0A0S3QPU4 1-504): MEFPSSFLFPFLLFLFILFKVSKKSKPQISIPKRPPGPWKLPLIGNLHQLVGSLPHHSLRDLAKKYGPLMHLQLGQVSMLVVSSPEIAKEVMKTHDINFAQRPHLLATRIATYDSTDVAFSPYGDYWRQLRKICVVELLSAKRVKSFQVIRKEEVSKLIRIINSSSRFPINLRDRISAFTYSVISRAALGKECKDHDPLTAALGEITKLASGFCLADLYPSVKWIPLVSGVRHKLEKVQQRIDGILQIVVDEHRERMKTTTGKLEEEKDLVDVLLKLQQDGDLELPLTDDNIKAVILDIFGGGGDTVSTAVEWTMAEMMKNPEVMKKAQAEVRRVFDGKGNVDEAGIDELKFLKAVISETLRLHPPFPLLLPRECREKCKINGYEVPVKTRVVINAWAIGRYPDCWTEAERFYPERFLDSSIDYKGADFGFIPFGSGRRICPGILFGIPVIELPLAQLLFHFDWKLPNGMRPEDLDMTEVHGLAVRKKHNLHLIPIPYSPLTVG

VvSTO6 = target: T2, VvSTO6 (Vitis vinifera, UniProt A0A0S3QPS9); test: as above; type: biochemical; conditions: 100 μM substrate, 1 mM NADPH, 50 mM Tris-HCl pH 7.5, 30 °C, 2 h; unidentified products presumed mono-hydroxylated sesquiterpenes
T2 construct: gene CYP71BE10
T2 sequence (A0A0S3QPS9 1-505): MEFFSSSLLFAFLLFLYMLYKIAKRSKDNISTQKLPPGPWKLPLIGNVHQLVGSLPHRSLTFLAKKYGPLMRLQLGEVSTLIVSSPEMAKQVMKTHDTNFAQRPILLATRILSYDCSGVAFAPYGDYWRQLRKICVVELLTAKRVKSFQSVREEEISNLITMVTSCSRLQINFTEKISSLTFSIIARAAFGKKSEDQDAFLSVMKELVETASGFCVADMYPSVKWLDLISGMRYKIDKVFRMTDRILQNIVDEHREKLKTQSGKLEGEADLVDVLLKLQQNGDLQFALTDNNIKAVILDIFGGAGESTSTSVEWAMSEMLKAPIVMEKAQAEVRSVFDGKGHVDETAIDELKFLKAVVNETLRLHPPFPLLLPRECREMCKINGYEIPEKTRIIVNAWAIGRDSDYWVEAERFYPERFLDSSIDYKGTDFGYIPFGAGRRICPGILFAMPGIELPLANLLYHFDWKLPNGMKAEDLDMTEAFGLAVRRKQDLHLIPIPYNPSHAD

[1] = substrate: C=C(C)[C@@H]1CCC2=CCC[C@@H](C)[C@]2(C)C1; test: cells, lysate or membranes; conditions: 1 mM NADPH, 50 mM Tris-HCl pH 7.5, 30 °C, 30 min, 2–100 μM substrate
[2] = substrate: C=C(C)[C@@H]1CC[C@H](C)C2=C(C1)[C@@H](C)CC2; test: GC-MS (SBSE) of (−)-rotundone formation, Hanes-Woolf plot, recombinant yeast microsomes; type: biochemical, Vitis vinifera; conditions: 1 mM NADPH, 50 mM Tris-HCl pH 7.5, 30 °C, 30 min, 2.6–130 μM substrate

C=C(C)[C@@H]1CC[C@H](C)C2=C(C1)[C@@H](C)CC2 [α-guaiene]
GC-MS of reaction products, recombinant yeast microsomes (VvSTO4): VvSTO4 and VvSTO6 produced several reaction products with α-guaiene as a substrate | GC-MS of reaction products, recombinant yeast microsomes (VvSTO6): VvSTO4 and VvSTO6 produced several reaction products with α-guaiene as a substrate

B1: VvSTO2 (Vitis vinifera) (protein)
chain: MELQFSFFPILCTFLLFIYLLKRLGKPSRTNHPAPKLPPGPWKLPIIGNMHQLVGSLPHRSLRSLAKKHGPLMHLQLGEVSAIVVSSREMAKEVMKTHDIIFSQRPCILAASIVSYDCTDIAFAPYGGYWRQIRKISVLELLSAKRVQSFRSVREEEVLNLVRSVSLQEGVLINLTKSIFSLTFSIISRTAFGKKCKDQEAFSVTLDKFADSAGGFTIADVFPSIKLLHVVSGMRRKLEKVHKKLDRILGNIINEHKARSAAKETCEAEVDDDLVDVLLKVQKQGDLEFPLTMDNIKAVLLDLFVAGTETSSTAVEWAMAEMLKNPRVMAKAQAEVRDIFSRKGNADETVVRELKFLKLVIKETLRLHPPVPLLIPRESRERCAINGYEIPVKTRVIINAWAIARDPKYWTDAESFNPERFLDSSIDYQGTNFEYIPFGAGRRMCPGILFGMANVELALAQLLYHFDWKLPNGARHEELDMTEGFRTSTKRKQDLYLIPITYRPLPVE
Km [1]: 35 µM | Km [2]: 30 µM
